Measurements reported in PubChem BioAssay (NCI).
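Growth conditions: 96-well plates. Treatment: test compound, 48 hours, 5 concentrations. Analysis: linear interpolation between bracketing concentrations; unreached endpoints set to highest concentration. The concentration for full growth arrest is given as TGI.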

How the values were obtained:
Test in all cases: DTP human tumour cell line panel, 48 h
HCC-2998 colon = test system: HCC-2998 colon
CAKI-1 renal = test system: CAKI-1 renal
HOP-62 NSCLC = test system: HOP-62 NSCLC
OVCAR-5 ovarian = test system: OVCAR-5 ovarian
COLO 205 colon = test system: COLO 205 colon
LOX IMVI melanoma = test system: LOX IMVI melanoma
NCI-H522 lung = test system: NCI-H522 lung
SK-MEL-28 melanoma = test system: SK-MEL-28 melanoma
EKVX NSCLC = test system: EKVX NSCLC
MDA-N = test system: MDA-N

For `CC(=O)OC(Cn1cncn1)(Cn1cncn1)c1ccc(Cl)cc1Cl`, the TGI (HCC-2998 colon) was > 100 µM, the TGI (CAKI-1 renal) was > 100 µM and the TGI (HOP-62 NSCLC) was > 100 µM. The TGI (OVCAR-5 ovarian) was > 100 µM, the TGI (COLO 205 colon) was > 100 µM and the TGI (LOX IMVI melanoma) was > 100 µM. For the same compound, the TGI (NCI-H522 lung) was > 100 µM, the TGI (SK-MEL-28 melanoma) was > 100 µM and the TGI (EKVX NSCLC) was > 100 µM.

`Cc1c2c(OCC3CCCCO3)nn(C)c(=O)c2c(C)n1-c1ccccc1` (configuration not stated) showed a TGI (HCC-2998 colon) of 29.4 µM, a TGI (MDA-N) of 35.8 µM and a TGI (CAKI-1 renal) of 59 µM. The TGI (HOP-62 NSCLC) was 38 µM, the TGI (OVCAR-5 ovarian) was 35.9 µM and the TGI (COLO 205 colon) was 33.3 µM. It also gave a TGI (LOX IMVI melanoma) of 33.7 µM, a TGI (NCI-H522 lung) of 34.9 µM and a TGI (EKVX NSCLC) of 33.2 µM.

With `CCCCCCCCCc1nn2c(Cc3ccccc3)nnc2s1` the TGI (MDA-N) was 38.7 µM, the TGI (CAKI-1 renal) was > 100 µM and the TGI (HOP-62 NSCLC) was 39.6 µM. For the same compound, the TGI (OVCAR-5 ovarian) was 29.6 µM, the TGI (COLO 205 colon) was 41 µM and the TGI (NCI-H522 lung) was 27 µM. It also gave a TGI (SK-MEL-28 melanoma) of 33.8 µM and a TGI (EKVX NSCLC) of 29.6 µM.

`CCOC(=O)C#Cc1ccccc1` showed a TGI (HCC-2998 colon) of 27.8 µM, a TGI (MDA-N) of 45 µM and a TGI (CAKI-1 renal) of 33.4 µM. For the same compound, the TGI (HOP-62 NSCLC) was 46.3 µM, the TGI (OVCAR-5 ovarian) was 19.3 µM and the TGI (COLO 205 colon) was 25.9 µM. The TGI (LOX IMVI melanoma) was 14.9 µM, the TGI (SK-MEL-28 melanoma) was 44.3 µM and the TGI (EKVX NSCLC) was 10.9 µM.

For `NS(=O)(=O)c1cccc(NC(=S)NC(=O)Nc2ccc(Cl)c(Cl)c2)c1`, the TGI (MDA-N) was 38.2 µM, the TGI (HOP-62 NSCLC) was 30.9 µM and the TGI (OVCAR-5 ovarian) was 84 µM. For the same compound, the TGI (COLO 205 colon) was 35.4 µM, the TGI (LOX IMVI melanoma) was 33.4 µM and the TGI (NCI-H522 lung) was 28.6 µM. It also gave a TGI (SK-MEL-28 melanoma) of 42.9 µM.

With `CN(C)CCNC(=O)c1cccc2nc(-c3ccccc3)oc12` the TGI (HCC-2998 colon) was > 100 µM, the TGI (HOP-62 NSCLC) was > 100 µM and the TGI (OVCAR-5 ovarian) was > 100 µM. For the same compound, the TGI (COLO 205 colon) was 42.8 µM, the TGI (LOX IMVI melanoma) was > 71.8 µM and the TGI (SK-MEL-28 melanoma) was > 100 µM. The TGI (EKVX NSCLC) was > 55.8 µM.

`COCCOCCOC1=CC(=O)c2c(O)ccc(O)c2C1=O` gave a TGI (HCC-2998 colon) of 3.51 µM, a TGI (MDA-N) of 0.289 µM and a TGI (CAKI-1 renal) of 2.04 µM. The TGI (HOP-62 NSCLC) was 3.44 µM, the TGI (COLO 205 colon) was 0.883 µM and the TGI (LOX IMVI melanoma) was 3.11 µM. It also gave a TGI (NCI-H522 lung) of 2.93 µM, a TGI (SK-MEL-28 melanoma) of 2.92 µM and a TGI (EKVX NSCLC) of 7.54 µM.

For `S=c1cc(-c2ccc3c(c2)OCO3)s[nH]1`, the TGI (MDA-N) was > 100 µM, the TGI (CAKI-1 renal) was > 100 µM and the TGI (HOP-62 NSCLC) was > 100 µM. For the same compound, the TGI (OVCAR-5 ovarian) was > 100 µM, the TGI (COLO 205 colon) was > 100 µM and the TGI (LOX IMVI melanoma) was > 100 µM. For the same compound, the TGI (NCI-H522 lung) was 54.6 µM, the TGI (SK-MEL-28 melanoma) was > 100 µM and the TGI (EKVX NSCLC) was > 100 µM.

`O=c1[nH]c(=O)n(C2CC(O)C(CO)O2)cc1OCc1ccccc1` (configuration not stated) was tested, and the TGI (MDA-N) was > 100 µM, the TGI (CAKI-1 renal) was > 100 µM and the TGI (HOP-62 NSCLC) was > 100 µM. For the same compound, the TGI (OVCAR-5 ovarian) was > 100 µM, the TGI (COLO 205 colon) was > 100 µM and the TGI (LOX IMVI melanoma) was > 100 µM. For the same compound, the TGI (NCI-H522 lung) was > 100 µM, the TGI (SK-MEL-28 melanoma) was > 100 µM and the TGI (EKVX NSCLC) was > 100 µM.

For `COC(=O)[C@H](Cc1ccccc1)NC(=O)CCCCCCC(=O)NO`, the TGI (HCC-2998 colon) was 42.5 µM, the TGI (MDA-N) was 56.6 µM and the TGI (CAKI-1 renal) was > 100 µM. For the same compound, the TGI (OVCAR-5 ovarian) was 43.9 µM, the TGI (COLO 205 colon) was > 100 µM and the TGI (LOX IMVI melanoma) was 32.4 µM. For the same compound, the TGI (NCI-H522 lung) was 30.6 µM, the TGI (SK-MEL-28 melanoma) was > 100 µM and the TGI (EKVX NSCLC) was > 100 µM.

`COc1ccc(-c2cc(-c3ccccc3)[nH]c(=S)c2C#N)cc1` was tested, and the TGI (HCC-2998 colon) was > 100 µM, the TGI (MDA-N) was > 100 µM and the TGI (CAKI-1 renal) was > 100 µM. The TGI (HOP-62 NSCLC) was 24.2 µM, the TGI (OVCAR-5 ovarian) was > 100 µM and the TGI (LOX IMVI melanoma) was > 100 µM. The TGI (NCI-H522 lung) was > 100 µM, the TGI (SK-MEL-28 melanoma) was 58.7 µM and the TGI (EKVX NSCLC) was > 100 µM.

With `COc1ccc(NC(=S)NC(=O)c2ccc3c(c2)Sc2ccccc2O3)c([N+](=O)[O-])c1` the TGI (MDA-N) was > 100 µM, the TGI (CAKI-1 renal) was > 100 µM and the TGI (HOP-62 NSCLC) was > 100 µM. The TGI (OVCAR-5 ovarian) was > 100 µM, the TGI (COLO 205 colon) was > 100 µM and the TGI (LOX IMVI melanoma) was > 100 µM. For the same compound, the TGI (NCI-H522 lung) was 35.3 µM and the TGI (SK-MEL-28 melanoma) was > 100 µM.
